{"source": "ChEMBL document CHEMBL1201862", "about": "“PubChem BioAssay data set” (2004)", "key": {"HEK293 [1]": {"system": "HEK293", "experiment": "inhibition of NOD1-driven NF-kB reporter – cell-based, luminescence, uHTS, primary screen (AID 1578)", "type": "functional", "settings": "Homo sapiens"}, "HEK293 [2]": {"system": "HEK293", "experiment": "cells", "type": "functional, cell-based", "settings": "Homo sapiens"}, "cells [3]": {"experiment": "cells", "type": "functional, cell-based"}, "HEK293 [4]": {"system": "HEK293", "experiment": "cells", "type": "functional, cell-based", "settings": "Homo sapiens", "remark": "listed apart in the source"}, "[5]": {"molecular_target": "Nucleotide-binding oligomerization domain-containing protein 2 (Homo sapiens, UniProt Q9HC29)", "sequence (Q9HC29 whole entry, the tested form may be a part)": "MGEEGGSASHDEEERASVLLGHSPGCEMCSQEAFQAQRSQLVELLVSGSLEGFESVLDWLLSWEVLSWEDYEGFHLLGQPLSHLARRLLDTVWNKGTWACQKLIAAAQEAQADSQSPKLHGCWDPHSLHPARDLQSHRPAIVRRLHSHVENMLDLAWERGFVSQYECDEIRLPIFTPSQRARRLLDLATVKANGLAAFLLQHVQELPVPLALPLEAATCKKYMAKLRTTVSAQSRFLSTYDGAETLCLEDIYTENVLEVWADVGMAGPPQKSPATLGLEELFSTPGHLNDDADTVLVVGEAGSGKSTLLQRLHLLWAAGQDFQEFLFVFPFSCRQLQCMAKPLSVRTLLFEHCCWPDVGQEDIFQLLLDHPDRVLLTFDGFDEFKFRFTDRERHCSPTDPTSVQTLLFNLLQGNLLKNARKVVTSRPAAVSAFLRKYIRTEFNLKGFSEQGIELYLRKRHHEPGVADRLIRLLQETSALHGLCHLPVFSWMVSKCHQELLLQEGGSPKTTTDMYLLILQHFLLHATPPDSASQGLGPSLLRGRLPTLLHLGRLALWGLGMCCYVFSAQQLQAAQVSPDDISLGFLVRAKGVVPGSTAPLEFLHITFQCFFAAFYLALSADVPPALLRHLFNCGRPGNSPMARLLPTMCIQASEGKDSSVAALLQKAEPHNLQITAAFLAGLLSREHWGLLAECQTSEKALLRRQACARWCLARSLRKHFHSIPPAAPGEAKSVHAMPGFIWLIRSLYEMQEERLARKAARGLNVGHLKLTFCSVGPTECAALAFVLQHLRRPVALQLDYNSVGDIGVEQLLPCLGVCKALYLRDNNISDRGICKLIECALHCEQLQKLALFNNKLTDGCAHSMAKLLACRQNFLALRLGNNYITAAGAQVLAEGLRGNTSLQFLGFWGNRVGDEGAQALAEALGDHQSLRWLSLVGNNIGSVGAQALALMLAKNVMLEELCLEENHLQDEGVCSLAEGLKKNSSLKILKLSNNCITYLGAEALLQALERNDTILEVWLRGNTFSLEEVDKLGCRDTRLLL", "experiment": "inhibition of NOD2-driven NF-kB reporter – cell-based, luminescence, uHTS, HEK293 (AID 1566)", "type": "functional"}, "HEK293 [6]": {"system": "HEK293", "experiment": "NOD2 signaling inhibitors in MDP-stimulated cells, cell-based, uHTS, luminescence (AID 2001)", "type": "functional", "settings": "Homo sapiens"}, "HEK293 [7]": {"system": "HEK293", "experiment": "cells", "type": "functional, cell-based", "settings": "Homo sapiens", "remark": "listed apart in the source"}, "cells [8]": {"experiment": "cells", "type": "functional, cell-based", "remark": "listed apart in the source"}, "[9]": {"system": "Streptococcus sp. 'group A'", "experiment": "Streptococcus pyogenes SK(-)GAS viability under kanamycin – luminescence, BacTiterGlo, confirmation, counter-screen for streptokinase expression inhibitor project, dose response (AID 1900)", "type": "functional, organism-based"}, "BJ [10]": {"system": "BJ", "experiment": "BJ-TERT fibroblast viability loss – cell-based, RAS-independent, luminescence, dose response (AID 1933)", "type": "functional", "settings": "Homo sapiens"}, "BJ [11]": {"system": "BJ", "experiment": "cells", "type": "functional, cell-based", "settings": "Homo sapiens"}, "BJ [12]": {"system": "BJ", "experiment": "BJ-TERT-LT-ST fibroblast viability loss – cell-based, RAS-independent, luminescence, dose response (AID 1935);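 also: BJ fibroblasts immortalized with TERT plus LT and ST oncogenes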", "type": "functional", "settings": "Homo sapiens"}, "[13]": {"experiment": "DRD fibroblast viability loss – cell-based, non-viral oncogenic, luminescence, dose response (AID 1934)", "type": "functional", "settings": "Homo sapiens"}, "Streptococcus": {"system": "Streptococcus", "experiment": "GAS UMAA2166 growth inhibition – luminescence, BacTiterGlo, counter-screen for streptokinase expression inhibitor project, dose response (AID 1915);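 also: potency for reduction of bacterial viability or growth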", "type": "functional, organism-based"}, "[14]": {"experiment": "THP-1 cell cytotoxicity, dose response, cytotoxicity control for non-replicating M. tuberculosis project (AID 489025)", "type": "functional"}, "[15]": {"experiment": "HepG2 cell cytotoxicity, dose response, cytotoxicity control for non-replicating M. tuberculosis project (AID 489018)", "type": "functional", "settings": "Mycobacterium tuberculosis"}, "[16]": {"experiment": "Vero E6 cell cytotoxicity, dose response, cytotoxicity control for non-replicating M. tuberculosis project, secondary assay (AID 492998)", "type": "functional, VeroE6", "settings": "Vero C1008"}, "[17]": {"molecular_target": "T1, Microphthalmia-associated transcription factor (Homo sapiens, UniProt O75030)", "T1 sequence (O75030 whole entry)": "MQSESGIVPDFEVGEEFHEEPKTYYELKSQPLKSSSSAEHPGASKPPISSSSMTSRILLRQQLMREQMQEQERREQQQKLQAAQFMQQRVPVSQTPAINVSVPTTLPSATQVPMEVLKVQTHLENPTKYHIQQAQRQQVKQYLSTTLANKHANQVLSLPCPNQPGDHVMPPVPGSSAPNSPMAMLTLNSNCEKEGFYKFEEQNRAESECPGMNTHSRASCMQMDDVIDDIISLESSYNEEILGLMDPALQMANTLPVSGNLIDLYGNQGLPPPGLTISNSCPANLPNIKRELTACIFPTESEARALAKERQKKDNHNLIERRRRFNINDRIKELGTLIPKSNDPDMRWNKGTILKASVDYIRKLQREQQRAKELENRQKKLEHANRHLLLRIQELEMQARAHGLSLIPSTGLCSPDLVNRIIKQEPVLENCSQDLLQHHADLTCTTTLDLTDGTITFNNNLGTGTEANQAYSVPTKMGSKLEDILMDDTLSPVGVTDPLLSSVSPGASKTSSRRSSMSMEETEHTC", "experiment": "reducers of TRPM1 reporter luminescence, concentration series – cell-based, SK-MEL-5, cherry-picked, set 3, MITF inhibitor project, dose response (AID 493073);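 also: SK-MEL-5 melanoma cells with luciferase driven by the MITF target TRPM1 promoter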", "type": "functional"}, "cells [18]": {"experiment": "cells", "type": "functional"}, "BJ [19]": {"system": "BJ", "experiment": "growth inhibition of engineered Ras-driven BJ cells – cell-based, alamar blue fluorescence, cherrypicked samples, dose response (AID 2631)", "type": "functional", "settings": "Homo sapiens"}, "INS1": {"system": "INS1", "experiment": "INS-1E survival protection against cytokine death – cell-based, luminescence, retest, dose response (AID 449756);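 also: cell death triggered by IL-1 beta plus TNF-alpha plus IFN-gamma mixture; protective hits raise ATP signal compared with cytokine alone wells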", "type": "functional", "settings": "Rattus norvegicus"}, "Vero": {"system": "Vero", "experiment": "cells", "type": "functional", "settings": "Chlorocebus sabaeus"}, "Mu-type opioid receptor [20]": {"molecular_target": "T2, Mu-type opioid receptor (Homo sapiens, UniProt P35372)", "T2 sequence (P35372 whole entry)": "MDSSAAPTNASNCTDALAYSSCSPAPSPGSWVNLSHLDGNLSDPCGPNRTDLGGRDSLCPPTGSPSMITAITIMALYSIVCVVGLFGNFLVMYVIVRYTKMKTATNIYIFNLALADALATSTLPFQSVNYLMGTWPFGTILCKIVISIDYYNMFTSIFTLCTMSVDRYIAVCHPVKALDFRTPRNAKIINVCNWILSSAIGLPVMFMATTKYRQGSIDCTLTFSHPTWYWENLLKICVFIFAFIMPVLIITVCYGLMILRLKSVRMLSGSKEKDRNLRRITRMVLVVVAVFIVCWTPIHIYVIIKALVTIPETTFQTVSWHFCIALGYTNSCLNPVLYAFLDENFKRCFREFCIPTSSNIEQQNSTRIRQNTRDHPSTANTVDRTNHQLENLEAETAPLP", "experiment": "mu opioid receptor activators, image-based, SAR follow-up (AID 2352)", "type": "functional"}, "[21]": {"molecular_target": "T3, Delta-type opioid receptor (Homo sapiens, UniProt P41143)", "T3 sequence (P41143 whole entry)": "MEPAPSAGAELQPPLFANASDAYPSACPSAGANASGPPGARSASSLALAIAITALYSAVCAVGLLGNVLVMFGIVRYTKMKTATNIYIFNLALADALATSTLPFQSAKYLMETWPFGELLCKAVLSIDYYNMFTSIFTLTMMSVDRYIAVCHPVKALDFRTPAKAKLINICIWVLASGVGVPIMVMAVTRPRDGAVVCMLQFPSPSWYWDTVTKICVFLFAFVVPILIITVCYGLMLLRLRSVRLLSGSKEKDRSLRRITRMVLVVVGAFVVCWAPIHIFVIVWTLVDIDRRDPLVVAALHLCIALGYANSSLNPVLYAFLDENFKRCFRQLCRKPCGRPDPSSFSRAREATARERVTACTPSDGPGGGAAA", "experiment": "DOR agonists, SAR follow-up, image-based (AID 2370)", "type": "functional"}, "[22]": {"molecular_target": "T4, Kappa-type opioid receptor (Homo sapiens, UniProt P41145)", "T4 sequence (P41145 whole entry)": "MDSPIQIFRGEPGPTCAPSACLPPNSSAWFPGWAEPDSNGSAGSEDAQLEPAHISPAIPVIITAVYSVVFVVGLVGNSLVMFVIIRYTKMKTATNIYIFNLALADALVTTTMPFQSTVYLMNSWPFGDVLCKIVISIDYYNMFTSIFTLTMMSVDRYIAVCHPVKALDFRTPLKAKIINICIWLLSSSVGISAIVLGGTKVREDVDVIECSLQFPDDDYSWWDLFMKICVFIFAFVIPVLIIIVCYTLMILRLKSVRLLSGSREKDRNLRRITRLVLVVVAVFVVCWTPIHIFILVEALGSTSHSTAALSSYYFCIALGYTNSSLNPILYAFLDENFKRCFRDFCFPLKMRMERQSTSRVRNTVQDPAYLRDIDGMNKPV", "experiment": "kappa opioid receptor blockers, image-based, SAR follow-up (AID 2348)", "type": "functional"}, "Mu-type opioid receptor [23]": {"molecular_target": "T2, Mu-type opioid receptor", "experiment": "mu opioid receptor blockers – image-based, SAR follow-up (AID 2420);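 also: compounds added before stimulation of receptor with agonist DAMGO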", "type": "functional"}, "[24]": {"molecular_target": "T4, Kappa-type opioid receptor", "experiment": "kappa opioid receptor activation potency – imaging, image-based, SAR follow-up (AID 2359)", "type": "functional"}, "[25]": {"molecular_target": "Tyrosine-protein phosphatase non-receptor type 7 (Homo sapiens, UniProt P35236)", "sequence (P35236 whole entry)": "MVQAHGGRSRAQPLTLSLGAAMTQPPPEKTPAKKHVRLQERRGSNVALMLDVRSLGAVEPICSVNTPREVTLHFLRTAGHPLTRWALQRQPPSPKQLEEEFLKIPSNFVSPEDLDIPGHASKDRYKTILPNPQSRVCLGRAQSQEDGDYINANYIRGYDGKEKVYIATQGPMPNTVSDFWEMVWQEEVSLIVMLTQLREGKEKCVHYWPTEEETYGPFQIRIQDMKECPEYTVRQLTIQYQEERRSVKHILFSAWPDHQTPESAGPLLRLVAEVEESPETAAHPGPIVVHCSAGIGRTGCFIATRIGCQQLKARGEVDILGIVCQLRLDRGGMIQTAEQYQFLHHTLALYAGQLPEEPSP", "experiment": "SAR analysis of chemical inhibitors of HePTP using a Fluorescent assay - Set 2. [Related pubchem assays (depositor defined):AID1059, AID1077, AID1661, AID2085, AID521]", "type": "functional"}, "[26]": {"molecular_target": "Dual specificity protein phosphatase 3 (Homo sapiens, UniProt P51452)", "sequence (P51452 whole entry)": "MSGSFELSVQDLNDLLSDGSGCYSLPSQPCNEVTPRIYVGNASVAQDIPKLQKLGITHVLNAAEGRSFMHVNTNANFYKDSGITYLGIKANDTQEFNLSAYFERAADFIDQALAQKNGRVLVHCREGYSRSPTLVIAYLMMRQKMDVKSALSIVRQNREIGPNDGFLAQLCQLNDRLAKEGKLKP", "experiment": "SAR VHR1 Fluorescent Assay for In Vitro dose response studies Set 2. [Related pubchem assays (depositor defined):AID1654, AID1661, AID1878]", "type": "functional"}, "[27]": {"molecular_target": "T3, Delta-type opioid receptor", "experiment": "delta opioid receptor blockers – image-based, SAR follow-up (AID 2357)", "type": "functional"}, "[28]": {"molecular_target": "T4, Kappa-type opioid receptor", "experiment": "kappa opioid receptor blockers, cell-based, luminescence, beta-arrestin, SAR follow-up (AID 2285)", "type": "functional"}, "[29]": {"molecular_target": "Signal transducer and activator of transcription 3 (Homo sapiens, UniProt P40763)", "sequence (P40763 whole entry)": "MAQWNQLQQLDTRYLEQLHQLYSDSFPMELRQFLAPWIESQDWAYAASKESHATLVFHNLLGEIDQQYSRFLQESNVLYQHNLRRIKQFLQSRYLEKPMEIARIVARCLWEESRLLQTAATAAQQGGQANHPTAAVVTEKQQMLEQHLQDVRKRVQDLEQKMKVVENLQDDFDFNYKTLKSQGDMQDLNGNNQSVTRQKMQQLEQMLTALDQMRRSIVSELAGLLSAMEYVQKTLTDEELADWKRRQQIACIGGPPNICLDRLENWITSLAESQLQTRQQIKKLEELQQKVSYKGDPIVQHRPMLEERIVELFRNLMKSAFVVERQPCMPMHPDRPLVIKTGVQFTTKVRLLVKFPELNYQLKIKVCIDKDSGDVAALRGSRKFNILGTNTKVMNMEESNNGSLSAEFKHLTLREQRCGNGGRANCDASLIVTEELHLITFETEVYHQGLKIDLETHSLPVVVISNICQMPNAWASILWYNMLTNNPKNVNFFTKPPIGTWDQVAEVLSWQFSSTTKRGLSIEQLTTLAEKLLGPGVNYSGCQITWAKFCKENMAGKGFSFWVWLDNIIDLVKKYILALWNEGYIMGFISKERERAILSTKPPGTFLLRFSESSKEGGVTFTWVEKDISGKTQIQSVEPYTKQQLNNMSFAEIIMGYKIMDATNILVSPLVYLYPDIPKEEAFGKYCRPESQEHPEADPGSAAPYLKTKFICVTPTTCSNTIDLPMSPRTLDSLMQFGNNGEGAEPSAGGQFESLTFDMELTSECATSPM", "experiment": "STAT3 blockade with qPCR and toxicity readouts – cell-based, STAT1 panel, cytotoxicity, late-stage follow-up, panel member STAT3 Inhibition (AID 2078)"}, "[30]": {"molecular_target": "Signal transducer and activator of transcription 1-alpha/beta (Homo sapiens, UniProt P42224)", "sequence (P42224 whole entry)": "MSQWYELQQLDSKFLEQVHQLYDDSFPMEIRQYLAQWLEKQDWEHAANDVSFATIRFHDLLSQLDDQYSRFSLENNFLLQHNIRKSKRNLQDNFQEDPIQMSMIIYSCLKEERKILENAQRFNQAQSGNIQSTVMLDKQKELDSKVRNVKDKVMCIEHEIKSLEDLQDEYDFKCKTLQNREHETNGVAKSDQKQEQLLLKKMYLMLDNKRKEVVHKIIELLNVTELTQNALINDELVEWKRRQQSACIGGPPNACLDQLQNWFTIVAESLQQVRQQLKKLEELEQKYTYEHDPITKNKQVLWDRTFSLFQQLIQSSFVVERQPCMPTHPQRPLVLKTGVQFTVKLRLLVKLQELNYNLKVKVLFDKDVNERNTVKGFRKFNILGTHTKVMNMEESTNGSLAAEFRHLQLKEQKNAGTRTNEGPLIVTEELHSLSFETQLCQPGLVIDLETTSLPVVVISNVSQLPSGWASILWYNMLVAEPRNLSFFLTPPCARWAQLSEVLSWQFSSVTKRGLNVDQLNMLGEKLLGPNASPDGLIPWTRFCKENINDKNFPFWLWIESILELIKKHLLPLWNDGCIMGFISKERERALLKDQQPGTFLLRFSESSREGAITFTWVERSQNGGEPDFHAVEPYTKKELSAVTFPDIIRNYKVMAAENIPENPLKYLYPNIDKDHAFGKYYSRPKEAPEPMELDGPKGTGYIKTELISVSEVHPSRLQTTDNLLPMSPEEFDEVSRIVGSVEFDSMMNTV", "experiment": "STAT3 blockade with qPCR and toxicity readouts – cell-based, STAT1 panel, cytotoxicity, late-stage follow-up, panel member STAT1 Inhibition (AID 2078)"}, "Coagulation factor XII": {"molecular_target": "T5, Coagulation factor XII (Homo sapiens, UniProt P00748)", "T5 sequence (P00748 whole entry)": "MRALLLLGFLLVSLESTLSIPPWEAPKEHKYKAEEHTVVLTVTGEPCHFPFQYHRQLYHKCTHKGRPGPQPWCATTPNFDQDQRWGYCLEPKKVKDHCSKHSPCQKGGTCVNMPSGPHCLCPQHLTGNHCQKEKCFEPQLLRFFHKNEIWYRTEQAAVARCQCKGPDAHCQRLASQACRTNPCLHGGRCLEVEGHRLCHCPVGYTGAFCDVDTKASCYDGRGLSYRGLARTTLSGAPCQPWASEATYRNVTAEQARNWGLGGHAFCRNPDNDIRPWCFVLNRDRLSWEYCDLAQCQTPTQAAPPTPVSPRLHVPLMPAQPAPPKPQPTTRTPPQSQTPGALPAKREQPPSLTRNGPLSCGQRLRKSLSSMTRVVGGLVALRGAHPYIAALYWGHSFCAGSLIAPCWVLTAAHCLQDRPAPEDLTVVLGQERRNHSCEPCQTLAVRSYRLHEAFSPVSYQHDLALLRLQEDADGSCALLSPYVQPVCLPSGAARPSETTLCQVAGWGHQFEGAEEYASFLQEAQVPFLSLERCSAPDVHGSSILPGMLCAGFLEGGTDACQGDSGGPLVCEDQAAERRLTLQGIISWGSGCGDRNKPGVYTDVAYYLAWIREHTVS", "experiment": "Factor XIIa Dose Response Confirmation from Single Well HTS. [Related pubchem assays (depositor defined):AID701]", "type": "functional"}, "[31]": {"molecular_target": "Intestinal-type alkaline phosphatase (Homo sapiens, UniProt P09923)", "sequence (P09923 whole entry)": "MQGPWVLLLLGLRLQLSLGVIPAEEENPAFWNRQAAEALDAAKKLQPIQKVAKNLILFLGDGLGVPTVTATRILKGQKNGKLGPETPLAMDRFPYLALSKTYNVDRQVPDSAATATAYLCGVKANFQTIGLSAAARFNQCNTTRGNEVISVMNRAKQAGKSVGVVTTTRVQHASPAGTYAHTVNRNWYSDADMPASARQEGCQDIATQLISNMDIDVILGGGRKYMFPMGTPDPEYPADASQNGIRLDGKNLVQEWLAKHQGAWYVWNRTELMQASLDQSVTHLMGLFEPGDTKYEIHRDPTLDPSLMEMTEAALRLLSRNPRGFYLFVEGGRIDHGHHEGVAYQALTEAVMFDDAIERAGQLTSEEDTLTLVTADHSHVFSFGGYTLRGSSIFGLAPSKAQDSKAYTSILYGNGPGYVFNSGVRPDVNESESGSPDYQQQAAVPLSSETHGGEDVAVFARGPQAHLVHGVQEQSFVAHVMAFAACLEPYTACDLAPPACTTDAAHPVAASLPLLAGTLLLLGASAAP", "experiment": "human intestinal alkaline phosphatase activators, dose response, biochemical, luminescence, uHTS hits (AID 463120)", "type": "functional"}}, "note": "The source made the active and inactive calls."}
{"smiles": "O=C(N/N=C/c1ccccn1)c1ccc(Cl)cc1", "values": [{"measurement": "EC50", "setting": "HEK293 [1]", "value": "> 20 µM (inactive)"}, {"measurement": "IC50", "setting": "HEK293 [2]", "value": "> 20 µM (inactive)"}, {"measurement": "EC50", "setting": "cells [3]", "value": "> 350 µM (not active)"}, {"measurement": "IC50", "setting": "HEK293 [4]", "value": "> 20 µM (inactive)"}, {"measurement": "EC50", "setting": "[5]", "value": "> 20 µM (inactive)"}, {"measurement": "IC50", "setting": "HEK293 [6]", "value": "7.14 µM (inactive)"}, {"measurement": "IC50", "setting": "HEK293 [7]", "value": "> 20 µM (inactive)"}, {"measurement": "EC50", "setting": "cells [8]", "value": "> 350 µM (not active)"}]}
{"smiles": "COc1cccc(C(=O)N/N=C(/c2ccccc2)c2ccccn2)c1", "values": [{"measurement": "EC50", "setting": "[9]", "value": "14.2 µM (active)"}, {"measurement": "EC50", "setting": "BJ [10]", "value": "2.69 µM (active)"}, {"measurement": "EC50", "setting": "cells [3]", "value": "9.7 µM (active)"}, {"measurement": "EC50", "setting": "BJ [11]", "value": "4.58 µM (active)"}, {"measurement": "EC50", "setting": "cells [8]", "value": "> 350 µM (not active)"}, {"measurement": "EC50", "setting": "BJ [12]", "value": "3.26 µM (active)"}, {"measurement": "EC50", "setting": "[13]", "value": "2.82 µM (active)"}, {"measurement": "EC50", "setting": "Streptococcus", "value": "18 µM (active)"}, {"measurement": "CC50", "setting": "[14]", "value": "0.844 µM (active)"}, {"measurement": "CC50", "setting": "[15]", "value": "11.3 µM (active)"}, {"measurement": "CC50", "setting": "[16]", "value": "1.98 µM (active)"}, {"measurement": "AC50", "setting": "[17]", "value": "5.8 µM (active)"}, {"measurement": "IC50", "setting": "cells [18]", "value": "2.04 µM (active)"}, {"measurement": "EC50", "setting": "BJ [19]", "value": "1.45 µM (active)"}, {"measurement": "AC50", "setting": "INS1", "value": "0.745 µM (active)"}, {"measurement": "CC50", "setting": "Vero", "value": "2.36 µM (active)"}]}
{"smiles": "O=C(NC(NC(=S)Nc1ccccc1)C(Cl)(Cl)Cl)OCc1ccccc1", "note": "(configuration not stated)", "values": [{"measurement": "EC50", "setting": "Mu-type opioid receptor [20]", "value": "> 32 µM (inactive)"}, {"measurement": "EC50", "setting": "[21]", "value": "> 32 µM (inactive)"}, {"measurement": "IC50", "setting": "[22]", "value": "17.6 µM (inactive)"}, {"measurement": "IC50", "setting": "Mu-type opioid receptor [23]", "value": "> 32 µM (inactive)"}, {"measurement": "EC50", "setting": "[24]", "value": "> 32 µM (inactive)"}, {"measurement": "IC50", "setting": "[25]", "value": "> 100 µM (inactive)"}, {"measurement": "IC50", "setting": "[26]", "value": "> 100 µM (inactive)"}, {"measurement": "IC50", "setting": "[27]", "value": "> 32 µM (inactive)"}, {"measurement": "IC50", "setting": "[28]", "value": "> 10 µM (inactive)"}]}
{"smiles": "Fc1ccc(CC2CCN(c3ncnc4sccc34)CC2)cc1", "values": [{"measurement": "IC50", "setting": "[29]", "value": "2.54 µM (active)"}, {"measurement": "IC50", "setting": "[30]", "value": "> 55.7 µM (inactive)"}]}
{"smiles": "CC(/N=c1\\ccccn1C(=O)Nc1cccc(C(F)(F)F)c1)c1ccco1", "note": "(configuration not stated)", "values": [{"measurement": "IC50", "setting": "Coagulation factor XII", "value": "> 50 µM (inactive)"}]}
{"smiles": "Cc1ccc(Cl)cc1NC(=O)C(=O)N/N=C/c1ccc2c(c1)OCO2", "values": [{"measurement": "EC50", "setting": "[31]", "value": "29.6 µM (active)"}]}
